# Where two headings read alike, the source gives them in different places.
# Tests used:
# human TLR7 = human TLR7 (Homo sapiens (Human), UniProt Q9NYK1); assay: TLR7 inhibition reporter assay (HEK-Blue SEAP); type: cell-based
# human TLR8 = human TLR8 (Homo sapiens (Human), UniProt Q9NR97); assay: TLR8 inhibition reporter assay (HEK-Blue SEAP);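 further: SEAP driven by IFN-β minimal promoter carrying NF-κB and AP-1 sites, compounds dosed 0.05 nM to 50 µM for 22 h, inhibition scaled between agonist-plus-DMSO and reference-inhibitor wells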
# Sequence of human TLR8 (Q9NR97 27-1041): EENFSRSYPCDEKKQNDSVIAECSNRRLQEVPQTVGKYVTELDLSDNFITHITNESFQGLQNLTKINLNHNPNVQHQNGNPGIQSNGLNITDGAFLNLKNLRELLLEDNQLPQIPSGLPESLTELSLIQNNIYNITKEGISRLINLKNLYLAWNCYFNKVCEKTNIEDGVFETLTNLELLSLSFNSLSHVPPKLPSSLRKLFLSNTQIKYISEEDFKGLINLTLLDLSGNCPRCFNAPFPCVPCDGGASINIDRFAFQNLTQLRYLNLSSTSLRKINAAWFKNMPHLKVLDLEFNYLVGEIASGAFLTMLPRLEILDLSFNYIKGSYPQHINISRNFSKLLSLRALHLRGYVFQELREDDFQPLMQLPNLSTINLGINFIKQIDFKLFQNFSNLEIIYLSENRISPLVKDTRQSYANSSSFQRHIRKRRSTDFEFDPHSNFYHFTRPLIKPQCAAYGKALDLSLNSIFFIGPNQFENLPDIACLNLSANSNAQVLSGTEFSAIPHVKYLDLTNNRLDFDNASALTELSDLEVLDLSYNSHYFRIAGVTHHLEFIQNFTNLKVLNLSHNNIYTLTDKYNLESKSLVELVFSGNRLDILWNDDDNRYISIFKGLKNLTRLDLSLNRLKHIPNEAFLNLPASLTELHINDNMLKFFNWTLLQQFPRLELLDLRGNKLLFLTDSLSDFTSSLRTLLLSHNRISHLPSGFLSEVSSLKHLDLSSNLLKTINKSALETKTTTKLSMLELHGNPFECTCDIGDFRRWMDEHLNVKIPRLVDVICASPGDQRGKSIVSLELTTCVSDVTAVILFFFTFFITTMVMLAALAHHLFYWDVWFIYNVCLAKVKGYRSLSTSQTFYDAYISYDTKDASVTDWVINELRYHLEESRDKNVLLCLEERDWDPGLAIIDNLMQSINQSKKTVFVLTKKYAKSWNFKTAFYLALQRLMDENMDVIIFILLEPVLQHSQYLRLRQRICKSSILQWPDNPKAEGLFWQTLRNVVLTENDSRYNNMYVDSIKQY
# human TLR9 = human TLR9 (Homo sapiens (Human), UniProt Q9NR96); assay: TLR9 inhibition reporter assay (HEK-Blue SEAP);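 further: SEAP driven by an IFN-β minimal promoter with NF-κB and AP-1 sites, read after 22 h, compounds dosed 0.05 nM–50 µM, inhibition scaled between agonist plus DMSO and reference-inhibitor wells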
# Sequence of human TLR9 (Q9NR96 26-1032): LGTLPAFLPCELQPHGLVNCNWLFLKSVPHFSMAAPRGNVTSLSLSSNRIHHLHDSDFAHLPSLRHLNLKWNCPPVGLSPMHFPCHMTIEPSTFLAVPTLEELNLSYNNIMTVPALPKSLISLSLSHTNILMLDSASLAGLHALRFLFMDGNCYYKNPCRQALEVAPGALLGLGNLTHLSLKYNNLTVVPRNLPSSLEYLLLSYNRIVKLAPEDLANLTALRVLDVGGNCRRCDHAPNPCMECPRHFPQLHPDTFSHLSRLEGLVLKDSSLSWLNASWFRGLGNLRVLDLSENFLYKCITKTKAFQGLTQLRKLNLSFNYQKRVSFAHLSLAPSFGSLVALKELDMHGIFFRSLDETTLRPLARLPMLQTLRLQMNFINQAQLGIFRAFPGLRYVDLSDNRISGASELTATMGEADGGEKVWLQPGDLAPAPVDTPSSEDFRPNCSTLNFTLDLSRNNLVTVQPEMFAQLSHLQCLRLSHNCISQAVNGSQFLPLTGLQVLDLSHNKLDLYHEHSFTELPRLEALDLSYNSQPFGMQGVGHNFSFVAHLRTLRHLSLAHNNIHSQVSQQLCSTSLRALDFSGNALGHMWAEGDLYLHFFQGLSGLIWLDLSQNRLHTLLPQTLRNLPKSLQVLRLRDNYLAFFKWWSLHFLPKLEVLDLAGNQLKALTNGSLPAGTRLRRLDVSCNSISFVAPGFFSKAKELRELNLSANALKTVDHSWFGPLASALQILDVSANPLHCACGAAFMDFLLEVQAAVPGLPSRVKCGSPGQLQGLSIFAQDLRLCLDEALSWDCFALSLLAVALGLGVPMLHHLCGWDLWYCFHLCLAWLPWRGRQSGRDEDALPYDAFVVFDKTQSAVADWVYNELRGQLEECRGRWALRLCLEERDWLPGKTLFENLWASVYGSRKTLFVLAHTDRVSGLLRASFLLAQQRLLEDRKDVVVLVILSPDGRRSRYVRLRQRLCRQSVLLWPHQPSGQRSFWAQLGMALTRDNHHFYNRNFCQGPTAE
# [1] = HEK-Blue human TLR7 cells, gardiquimod 7.5 μM
# [2] = read-out: TLR8 IC50, HEK-Blue human TLR8 cells, R848 15.9 μM
# [3] = read-out: TLR9 IC50, HEK-Blue human TLR9 cells, ODN2006 5 nM
# [4] = HEK-Blue cells overexpressing human TLR7, gardiquimod 7.5 μM stimulation, SEAP reporter
# [5] = read-out: TLR8 IC50, HEK-Blue cells overexpressing human TLR8, R848 15.9 μM stimulation, SEAP reporter
# [6] = read-out: TLR9 IC50, HEK-Blue cells overexpressing human TLR9, ODN2006 5 nM stimulation, SEAP reporter
# [7] = HEK-Blue cells overexpressing human TLR7, SEAP reporter, gardiquimod 7.5 μM
# [8] = read-out: TLR8 IC50, HEK-Blue cells overexpressing human TLR8, SEAP reporter, R848 15.9 μM
# [9] = read-out: TLR9 IC50, HEK-Blue cells overexpressing human TLR9, SEAP reporter, ODN2006 5 nM
# [10] = TLR8 IC50, HEK-Blue human TLR8 cells, R848 15.9 μM
# [11] = TLR9 IC50, HEK-Blue human TLR9 cells, ODN2006 5 nM
# Sequence of human TLR7 (Q9NYK1 27-1049): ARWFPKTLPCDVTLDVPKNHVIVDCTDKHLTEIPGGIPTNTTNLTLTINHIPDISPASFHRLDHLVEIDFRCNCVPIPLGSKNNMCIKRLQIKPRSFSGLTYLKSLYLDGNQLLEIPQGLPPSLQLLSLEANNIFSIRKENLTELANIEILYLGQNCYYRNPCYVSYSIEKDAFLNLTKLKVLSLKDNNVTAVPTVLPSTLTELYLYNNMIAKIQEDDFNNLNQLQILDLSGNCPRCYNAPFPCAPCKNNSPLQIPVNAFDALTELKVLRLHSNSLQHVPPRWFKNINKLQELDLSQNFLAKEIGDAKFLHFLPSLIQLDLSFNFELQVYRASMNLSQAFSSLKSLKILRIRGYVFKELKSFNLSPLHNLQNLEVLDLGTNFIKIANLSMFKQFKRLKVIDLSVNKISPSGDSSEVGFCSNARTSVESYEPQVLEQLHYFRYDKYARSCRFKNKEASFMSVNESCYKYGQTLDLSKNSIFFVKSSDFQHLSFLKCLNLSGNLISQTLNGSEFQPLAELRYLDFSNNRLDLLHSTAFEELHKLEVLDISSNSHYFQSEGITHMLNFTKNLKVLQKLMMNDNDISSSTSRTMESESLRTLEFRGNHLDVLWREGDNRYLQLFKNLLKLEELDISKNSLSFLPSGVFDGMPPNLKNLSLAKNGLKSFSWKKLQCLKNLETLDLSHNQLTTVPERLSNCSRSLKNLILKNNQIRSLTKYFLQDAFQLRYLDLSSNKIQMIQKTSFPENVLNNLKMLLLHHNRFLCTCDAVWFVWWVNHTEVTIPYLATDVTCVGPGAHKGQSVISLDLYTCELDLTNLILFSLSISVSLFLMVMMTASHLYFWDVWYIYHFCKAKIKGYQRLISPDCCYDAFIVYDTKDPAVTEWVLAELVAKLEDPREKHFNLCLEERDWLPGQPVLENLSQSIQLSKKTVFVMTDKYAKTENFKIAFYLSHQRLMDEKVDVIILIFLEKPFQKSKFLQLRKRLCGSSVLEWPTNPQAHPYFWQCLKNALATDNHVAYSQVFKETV
SMILES,IC50 (human TLR7; [4]),IC50 (human TLR8; [5]),IC50 (human TLR9; [6]),IC50 (human TLR7; [7]),IC50 (human TLR8; [8]),IC50 (human TLR9; [9]),other results
Cc1c(-c2[nH]c3ccc(N4CCN(C(=O)CN5CCC(C)(O)C5)CC4)nc3c2C(C)C)cn2ncnc2c1C (stereo not drawn) [Example 948],,,,,,,IC50 (human TLR7; [1]): 2.8 nM; IC50 (human TLR8; [2]): 1.4 nM; IC50 (human TLR9; [3]): 12.8 µM
CC(C)c1c(-c2cn(CCS(C)(=O)=O)c3ncccc23)[nH]c2ccc(C3CCC(N4CC5(COC5)C4)CC3)nc12 (stereo not drawn) [Example 258],13 nM,3.5 nM,0.1 µM,,,,
COc1cc(-c2[nH]c3cc(C)c(C4CCC(N(C)Cc5ncn(C)n5)CC4)nc3c2C(C)C)cn2ncnc12 (stereo not drawn) [Example 333],0.6 nM,12 nM,1.46 µM,,,,
Cc1c(-c2[nH]c3ccc(N4[C@@H](C)CN(C(=O)CN(C)C)C[C@@H]4C)nc3c2C(C)C)cn2ncnc2c1C [Example 752],,,,0.38 nM,0.53 nM,10.3 µM,
"Cc1c(-c2[nH]c3ccc(N4CC(NC5CCOCC5)C4)nc3c2C(C)C)cn2ncnc2c1C [Example 1, 1-(2-(7,8-dimethyl-[1,2,4]triazolo[1,5-a]pyridin-6-yl)-3-isopropyl-1H-pyrrolo[3,2-b]pyridin-5-yl)-N-(tetrahydro-2H-pyran-4-yl)azetidin-3-amine]",20 nM,3.8 nM,7.73 µM,,,,
Cc1c(-c2[nH]c3ccc(C4CCN(CC(=O)N(C)C)CC4)nc3c2C(C)C)cn(C)c(=O)c1C [Example 545],,,,22 nM,7.5 nM,2.46 µM,
CC(C)c1c(-c2cn(C)c3ncccc23)[nH]c2ccc(C3CCC(N4CC5(C4)CS(=O)(=O)C5)CC3)nc12 (stereo not drawn) [Example 256],1.2 nM,3.7 nM,0.335 µM,,,,
CC(C)c1c(-c2cn(C)c3ncccc23)[nH]c2ccc(CCC3CN(C(=O)CN(C)C)C3)nc12 [Example 703],,,,8.9 nM,16 nM,0.326 µM,
Cc1c(-c2[nH]c3ccc(N4CCN(CCC(N)=O)C[C@@H]4C)nc3c2C(C)C)cn2ncnc2c1C [Example 804],,,,,,,IC50 (human TLR7; [1]): 1.2 nM; IC50 (human TLR8; [2]): 0.56 nM; IC50 (human TLR9; [3]): 18.1 µM
Cc1c(-c2[nH]c3ccc(C4CCN(C5COC5)CC4)nc3c2C(C)C)cn(C)c(=O)c1C [Example 542],,,,24 nM,17 nM,9.23 µM,
[2H]C1([2H])NC([2H])([2H])C([2H])([2H])N(c2ccc3[nH]c(-c4cn5ncnc5c(C)c4C)c(C(C)C)c3n2)C1([2H])[2H] [Example 857],,,,,,,IC50 (human TLR7; [1]): 0.65 nM; IC50 (human TLR8; [10]): 0.4 nM; IC50 (human TLR9; [11]): 4.4 µM
Cc1c(-c2[nH]c3ccc(N4[C@H](C)CN(CCCS(C)(=O)=O)C[C@H]4C)nc3c2C(C)C)cn2ncnc2c1C [Example 869],,,,,,,IC50 (human TLR7; [1]): 1.9 nM; IC50 (human TLR8; [2]): 34 nM; IC50 (human TLR9; [3]): 40.3 µM
Cc1cc(-c2[nH]c3ccc(C4CCC(NC5COC5)CC4)nc3c2C(C)C)cc(C)n1 (stereo not drawn) [Example 287],25 nM,33 nM,2.36 µM,,,,
Cc1c(-c2[nH]c3ccc(N4CCN(C(=O)CN(C)C5COC5)CC4)nc3c2C(C)C)cn2ncnc2c1C [Example 967],,,,,,,IC50 (human TLR7; [1]): 7.9 nM; IC50 (human TLR8; [2]): 1.2 nM; IC50 (human TLR9; [3]): 38.7 µM
Cc1c(-c2[nH]c3ccc(C4CCC(NC5COC5)CC4)nc3c2C(C)C)cn2cnnc2c1C (stereo not drawn) [Example 234],1.6 nM,5 nM,0.435 µM,,,,
Cc1c(-c2[nH]c3ccc(CCC4CN(CCS(C)(=O)=O)C4)nc3c2C(C)C)cn2ncnc2c1C [Example 695],,,,42 nM,20 nM,3.95 µM,
Cc1c(-c2[nH]c3ccc(C4CCN(CC(=O)N(C)C)CC4)nc3c2C(C)C)cn2ncnc2c1C [Example 540],,,,1.1 nM,1.4 nM,1.95 µM,
CCN(C)CC(=O)N1CCN(c2ccc3[nH]c(-c4cn5ncnc5c(C)c4C)c(C(C)C)c3n2)[C@@H](C)C1 [Example 932],,,,,,,IC50 (human TLR7; [1]): 0.66 nM; IC50 (human TLR8; [2]): 10 nM; IC50 (human TLR9; [3]): 14.3 µM
COc1cc(-c2[nH]c3ccc(C4CCN(CC(C)(C)O)CC4)nc3c2C(C)C)cn2ncnc12 [Example 548],,,,0.71 nM,0.98 nM,1.09 µM,
Cc1c(-c2[nH]c3ccc(C4CCC(NCCS(=O)(=O)C(F)(F)F)CC4)nc3c2C(C)C)cn2ncnc2c1C (stereo not drawn) [Example 423],,,,175 nM,83 nM,> 50 µM,
Cc1c(-c2[nH]c3ccc(C4CCC(NCC(=O)N(C)C)CC4)nc3c2C(C)C)cn2ncnc2c1C (stereo not drawn) [Example 352],5.4 nM,9.2 nM,2.32 µM,,,,
CC(C)c1c(-c2cc(CO)c3ncnn3c2)[nH]c2ccc(C3CCC(NCCC(F)(F)F)CC3)nc12 (stereo not drawn) [Example 307],0.86 nM,2.7 nM,2.98 µM,,,,
Cc1c(-c2[nH]c3ccc(N4[C@H](C)CNC[C@H]4C)nc3c2C(C)C)cn2ncnc2c1C [Example 861],,,,,,,IC50 (human TLR7; [1]): 0.31 nM; IC50 (human TLR8; [2]): 4.2 nM; IC50 (human TLR9; [3]): 5.01 µM

SMILES,IC50 (human TLR7; [4]),IC50 (human TLR8; [5]),IC50 (human TLR9; [6]),IC50 (human TLR7; [7]),IC50 (human TLR8; [8]),IC50 (human TLR9; [9]),other results
Cc1cc(-c2[nH]c3ccc(C4CCC(N5CC6(COC6)C5)CC4)nc3c2C(C)C)cc(C)n1 (stereo not drawn) [Example 286],5.2 nM,9.2 nM,1.57 µM,,,,
"COc1cc(-c2[nH]c3ccc(OC4CCN(CC(C)(C)O)CC4)nc3c2C(C)C)cn2ncnc12 [Example 613, 1-(4-((3-isopropyl-2-(8-methoxy-[1,2,4]triazolo[1,5-a]pyridin-6-yl)-1H-pyrrolo[3,2-b]pyridin-5-yl)oxy)piperidin-1-yl)-2-methylpropan-2-ol]",,,,2 nM,3.2 nM,1.24 µM,
COc1cc(-c2[nH]c3ccc(C4CCC(N(C)Cc5ncccn5)CC4)nc3c2C(C)C)cn2ncnc12 (stereo not drawn) [Example 209],0.71 nM,4 nM,0.641 µM,,,,
CCN(C)C1CCN(c2ccc3[nH]c(-c4cn5ncnc5c(C)c4C)c(C(C)C)c3n2)CC1 [Example 66],1.4 nM,0.98 nM,3.87 µM,,,,
[2H]C([2H])([2H])NCCC(=O)N1C[C@H](C)N(c2ccc3[nH]c(-c4cn5ncnc5c(C)c4C)c(C(C)C)c3n2)C[C@H]1C [Example 964],,,,,,,IC50 (human TLR7; [1]): 0.53 nM; IC50 (human TLR8; [10]): 0.25 nM; IC50 (human TLR9; [11]): 3.1 µM
Cc1c(-c2[nH]c3ccc(C4CC(N)C4)nc3c2C(C)C)cn2ncnc2c1C (stereo not drawn) [Example 617],,,,2220 nM,1320 nM,20.5 µM,
COc1cc(-c2[nH]c3cc(F)c(C4CCC(NCC5(C)COC5)CC4)nc3c2C(C)C)cn2ncnc12 (stereo not drawn) [Example 342],0.98 nM,3.9 nM,1.91 µM,,,,
Cc1cc(-c2[nH]c3ccc(-c4cnn(CCN5CCOCC5)c4)nc3c2C(C)C)cn2ncnc12 [Example 736],,,,631 nM,269 nM,> 50 µM,
COc1cc(-c2[nH]c3ccc(C4CCC(N(C)C)CC4)nc3c2C(C)C)cn2ncnc12 (stereo not drawn) [Example 179],0.92 nM,7 nM,1.74 µM,,,,
CNC(=O)CNC1CC(c2ccc3[nH]c(-c4cn5ncnc5c(C)c4C)c(C(C)C)c3n2)C1 (stereo not drawn) [Example 631],,,,4 nM,1.9 nM,3.07 µM,
CCN1CC2(C1)CN(c1ccc3[nH]c(-c4cc(OC)c5ncnn5c4)c(C(C)C)c3n1)C2 [Example 1018],,,,,,,IC50 (human TLR7; [1]): 1.7 nM; IC50 (human TLR8; [2]): 8.9 nM; IC50 (human TLR9; [3]): 2.78 µM
Cc1c(-c2[nH]c3ccc(N4CC(NCC(=O)N(C)C)C4)nc3c2C(C)C)cn2ncnc2c1C [Example 26],1770 nM,2130 nM,> 50 µM,,,,
Cc1c(-c2[nH]c3ccc(C4CCC(N5CCOCC5)CC4)nc3c2C(C)C)cn2ncnc2c1C (stereo not drawn) [Example 1064],,,,,,,IC50 (human TLR7; [1]): 0.34 nM; IC50 (human TLR8; [2]): 0.96 nM; IC50 (human TLR9; [3]): 2.46 µM
"Cc1c(-c2[nH]c3ccc(C4CCC(N(C)C5COC5)CC4)nc3c2C(C)C)cn2ncnc2c1C (single isomer, unassigned) [Example 424, N-(4-(2-(7,8-dimethyl-[1,2,4]triazolo[1,5-a]pyridin-6-yl)-3-isopropyl-1H-pyrrolo[3,2-b]pyridin-5-yl)cyclohexyl)-N-methyloxetan-3-amine]",,,,0.89 nM,0.74 nM,1.53 µM,
CC(C)c1c(-c2cn(C)c3ncccc23)[nH]c2ccc(CCC3CN(C4COC4)C3)nc12 [Example 694],,,,2310 nM,2850 nM,14.6 µM,
Cc1c(-c2[nH]c3ccc(N4CCN(CC(N)=O)C[C@@H]4C)nc3c2C(C)C)cn2ncnc2c1C [Example 809],,,,,,,IC50 (human TLR7; [1]): 2.2 nM; IC50 (human TLR8; [2]): 3.1 nM; IC50 (human TLR9; [3]): 36 µM
Cc1c(-c2[nH]c3ccc(C4CCC(NCCO)CC4)nc3c2C(C)C)cn2ncnc2c1C (stereo not drawn) [Example 379],2.6 nM,4.7 nM,0.909 µM,,,,
COc1cc(-c2[nH]c3cc(C)c(C4CCC(N(C)CCC#N)CC4)nc3c2C(C)C)cn2ncnc12 (stereo not drawn) [Example 339],0.2 nM,7.1 nM,5.89 µM,,,,
COc1cc(-c2[nH]c3ccc(CCC4CN(CC(=O)N(C)C)C4)nc3c2C(C)C)cn2ncnc12 [Example 689],,,,11 nM,42 nM,0.433 µM,
Cc1c(-c2[nH]c3ccc(C4CCC(NC5(CO)COC5)CC4)nc3c2C(C)C)cn2ncnc2c1C (stereo not drawn) [Example 484],,,,6.1 nM,11 nM,7.07 µM,
COc1cc(-c2[nH]c3cc(F)c(C4CCC(NC5COC5)CC4)nc3c2C(C)C)cn2ncnc12 (stereo not drawn) [Example 346],0.32 nM,6 nM,6.29 µM,,,,
COCCN(C1CCC(c2ccc3[nH]c(-c4cn5ncnc5c(C)c4C)c(C(C)C)c3n2)CC1)C1(CO)COC1 (stereo not drawn) [Example 499],,,,607 nM,833 nM,> 50 µM,

# From patent US10544143B2, “4-azaindole compounds” (BRISTOL-MYERS SQUIBB COMPANY, priority 2017, dated 2020)
